In article PMC5079829 (Bioorganic & medicinal chemistry, 2016):

Assays:
H9/HIV-1IIIB = settings: previously reported; cited from earlier work
[1] = system: HIV-1 Env pseudovirus QG393.60M.ENV.B7; settings: QG393.60M.ENV.B7, subtype A2/D, NIH # 11906; previously published ref 18; cited from earlier work
[2] = system: HIV-1 Env pseudovirus QG393.60M.ENV.A1; settings: QG393.60M.ENV.A1, subtype A2/D, NIH # 11905; previously published ref 18; cited from earlier work
[3] = system: HIV-1 Env pseudovirus QF495.23M.ENV.B2; settings: QF495.23M.ENV.B2, subtype A, NIH # 11892; previously published ref 18; cited from earlier work
[4] = system: HIV-1 Env pseudovirus BF535.W6M.ENV.A1; settings: BF535.W6M.ENV.A1, subtype D/A, NIH # 11517 (infant); previously published ref 18; cited from earlier work
[5] = system: HIV-1 Env pseudovirus pCAAN5342 clone A2; settings: pCAAN5342 clone A2, subtype B, NIH # 11038; previously published ref 18; cited from earlier work
[6] = system: panel of 51 Env-pseudotyped viruses; test: microbe, parasite or virus in culture; type: cell-based; settings: Human immunodeficiency virus 1, read-out: IC50 range over the pseudovirus panel
[7] = system: HIV-1 Env pseudovirus p1058_11.B11.1550; settings: p1058_11.B11.1550, subtype B, NIH # 11563, R5X4-tropic; previously published ref 18; cited from earlier work
[8] = system: HIV-1 Env pseudovirus CRF02_AG clone 278; settings: CRF02_AG clone 278, subtype A/G, NIH # 11605; previously published ref 18; cited from earlier work
[9] = system: HIV-1 Env pseudovirus BG505-T332N; settings: subtype A, previously published ref 18; cited from earlier work
[10] = system: HIV-1 Env pseudovirus ZM135M.PL10a; settings: subtype C, NIH # 11315, previously published ref 18; cited from earlier work
[11] = system: HIV-1 Env pseudovirus QG393.60M.ENV.B8; settings: QG393.60M.ENV.B8, subtype A2/D, NIH # 11907; previously published ref 18; cited from earlier work
[12] = system: HIV-1 Env pseudovirus pTHRO4156 clone 18; settings: pTHRO4156 clone 18, subtype B, NIH # 11037; previously published ref 18; cited from earlier work
[13] = system: HIV-1 Env pseudovirus QB726.70M.ENV.C4; settings: QB726.70M.ENV.C4, subtype A, NIH # 11888; previously published ref 18; cited from earlier work
[14] = system: HIV-1 Env pseudovirus QF495.23M.ENV.A1; settings: QF495.23M.ENV.A1, subtype A, NIH # 11890; previously published ref 18; cited from earlier work
[15] = system: HIV-1 Env pseudovirus QH0692, clone 42; settings: QH0692, clone 42, subtype B, NIH # 11018; previously published ref 18; cited from earlier work
[16] = system: HIV-1 Env pseudovirus CAP210.2.00.E8; settings: CAP210.2.00.E8, subtype C, NIH # 11317; previously published ref 18; cited from earlier work
[17] = system: HIV-1 Env pseudovirus SC422661.8; settings: SC422661.8, subtype B, NIH # 11058; previously published ref 18; cited from earlier work
[18] = system: HIV-1 Env pseudovirus AC10.0, clone 29; settings: AC10.0, clone 29, subtype B, NIH # 11024; previously published ref 18; cited from earlier work
[19] = system: HIV-1 Env pseudovirus QB099.391M.ENV.C8; settings: QB099.391M.ENV.C8, subtype C, NIH # 11909; previously published ref 18; cited from earlier work
[20] = system: HIV-1 Env pseudovirus CRF02_AG clone 266; settings: CRF02_AG clone 266, subtype A/G, NIH # 11602; previously published ref 18; cited from earlier work
[21] = system: HIV-1 Env pseudovirus QD435.100M.ENV.E1; settings: QD435.100M.ENV.E1, subtype D, NIH # 11918; previously published ref 18; cited from earlier work
[22] = system: HIV-1 Env pseudovirus ZM214M.PL15; settings: ZM214M.PL15, subtype C, NIH # 11310; previously published ref 18; cited from earlier work

**Q.** With `CC1(C)CC(NC(=O)C(=O)Nc2ccc(Cl)cc2)CC(C)(C)N1` [NBD-556] as the compound, how does the “inhibition of cell-to-cell HIV-1 transmission” value (H9/HIV-1IIIB) read?
**A.** failed to do so

**Q.** What does the source list for `Cc1nc([C@H](NC(=O)c2ccc(-c3ccc(Cl)cc3)[nH]2)[C@@H]2CCCCN2)sc1CO` [NBD-11021A2]?
**A.** IC50 [1]: 800 ± 300 nM; IC50 [2]: 410 ± 200 nM; IC50 [3]: 600 ± 400 nM; IC50 [4]: 2800 ± 600 nM; IC50 [5]: 600 ± 70 nM; IC50 [6]: 320 to 4400 nM; IC50 [7]: 1100 ± 800 nM; IC50 [8]: 1300 ± 500 nM; IC50 [9]: 1000 ± 100 nM; IC50 [10]: 2700 ± 1200 nM; IC50 [11]: 480 ± 200 nM; IC50 [12]: 1000 ± 200 nM; IC50 [13]: 1300 ± 300 nM; IC50 [14]: 1300 ± 400 nM; IC50 [15]: 520 ± 100 nM; IC50 [16]: 2800 ± 700 nM; IC50 [17]: 330 ± 10 nM; IC50 [18]: 320 ± 10 nM; IC50 [19]: 1800 ± 500 nM; IC50 [20]: 1000 ± 200 nM; IC50 [21]: 3700 ± 100 nM; IC50 [22]: 2700 ± 200 nM
